Here are results for 5 molecules from EP0075629A1, “Imidazole derivatives, their preparation, and their pharmaceutical compositions” (Sumitomo Chemical Industries Ltd., priority 1981, dated 1983).

The subject of the assay is Lewis lung carcinoma (solid). Briefly: Antitumor effect on mouse experimental tumors (tumor inhibitory ratio by tumor weight). Type of assay: in vivo. As to conditions: Dose 100 mg/kg, route i.p., schedule 5q2d (days 1, 3, 5, 7 and 9); tumors removed and weighed at day 13; BDF1 male mice. The procedure:
The antitumor activities of compounds of the present invention were estimated according to the methods described in "Cancer chemotheraphy reports" Part 3, Vol. 3, (No. 2) p.13 (1972).
BDF1 male mice, 5 weeks old, weighing between 18 and 22 grams were used. Each test group was composed of 6 to 7 mice. Two million cells of Lewis lung carcinoma were injected in the hind leg. The drug was administered intraperitoneally at days 1, 3, 5, 7 and 9 (or 5q2d).
After killing the mice at day 13, tumors were removed and weighed. The tumor inhibitory ratio was calculated according to the following formula: [formula]
Regarding `COc1ccc(C(=O)Oc2nc[nH]c2C(N)=O)cc1OC` [5-Carbamoyl-1H-imidazole-4-yl 3',4'-dimethoxy-benzoate], the “Inhibition Ratio (%) Lewis lung carcinoma (solid)” value is on record as 83.1%.
Under `COc1cc(C(=O)Oc2nc[nH]c2C(N)=O)ccc1C` [5-Carbamoyl-1H-imidazole-4-yl 3'-methoxy-4'-methylbenzoate] stands 89.4%; under `NC(=O)c1[nH]cnc1OC(=O)C=Cc1cccc([N+](=O)[O-])c1` [5-Carbamoyl-1H-imidazole-4-yl m-nitrocinnamate], 90%; under `NC(=O)c1[nH]cnc1OC(=O)C=Cc1ccc(Cl)cc1` [5-Carbamoyl-1H-imidazole-4-yl p-chlorocinnamate], 90%.
Consider `NC(=O)c1[nH]cnc1OC(=O)c1ccc(-c2ccccc2)cc1` [5-Carbamoyl-1H-imidazole-4-yl p-phenylbenzoate], for which the “Inhibition Ratio (%) Lewis lung carcinoma (solid)” value is listed as 77.0%.
